“And” between values parts separate entries of the source, which are not always exact repeats. Identical values can stand only once.
Experiments:
Assay type in all cases: cell-based, human
whole blood [1] = experiment: Whole blood IFN-γ response to HuPPD or Mitogen, 24-well plate versus blood collection tube, Quantiferon-TB ELISA (Example 4)
whole blood [2] = conditions: blood collection tube, dextrose added; one line per subject; * OD outside the range of the plate reader
whole blood [3] = experiment: Whole blood IFN-γ response to antigen with or without dextrose, 24-well plate, Quantiferon-TB ELISA (Example 2)
whole blood [4] = tested on: whole blood

Row | Substance | Amount of IFN-γ detected, Mitogen 24-well (whole blood [1]; after subtraction of saline negative control, 24-well plate, one line per donor) | Amount of IFN-γ detected, Mitogen Tube (whole blood [1]; after subtraction of saline negative control, blood collection tube, mean of duplicate tubes, one line per donor) | Mean fold increase, Mitogen Tube/24-well (whole blood [1]; mean over donors) | Mitogen Tube/24-well (whole blood [1]; ratio of IFN-γ, one line per donor) | IFN-γ, In-Tube Method, Mitogen (whole blood [2]) | Concentration of IFN-γ found for each plasma sample, +Dextrose (whole blood [3]; 24-well plate, 20 hours 37° C., dextrose 2 mg/mL, one line per donor) | Concentration of IFN-γ found for each plasma sample, −Dextrose (whole blood [3]; 24-well plate, 20 hours 37° C., without dextrose, one line per donor) | Fold increase with dextrose (whole blood [3]; IFN-γ +Dextrose 2 mg/mL / −Dextrose, one line per donor) | Change in IFN-γ detected with addition of dextrose (in words) (whole blood [3]; dextrose 2 mg/mL, 24-well plate) | Mean fold increase, TetTox Tube/24 well (whole blood [4])
1 | phytohemagglutinin [Mitogen] | 83.34 IU/mL and 1.13 IU/mL and 10.04 IU/mL and 6.85 IU/mL and 12.32 IU/mL and 8.77 IU/mL and 76.98 IU/mL and 65.02 IU/mL and 8.14 IU/mL and −0.56 IU/mL and 21.79 IU/mL and 30.58 IU/mL and 28.26 IU/mL and 8.10 IU/mL and 2.75 IU/mL and 6.14 IU/mL and 14.05 IU/mL and 2.46 IU/mL and 11.80 IU/mL and 7.69 IU/mL | 61.94 IU/mL and 13.13 IU/mL and 7.95 IU/mL and 3.45 IU/mL and 13.32 IU/mL and 5.29 IU/mL and 68.58 IU/mL and 47.53 IU/mL and 5.80 IU/mL and −0.79 IU/mL and 16.34 IU/mL and 22.52 IU/mL and 19.16 IU/mL and 5.71 IU/mL and 1.88 IU/mL and 3.55 IU/mL and 9.07 IU/mL and 7.91 IU/mL and 8.73 IU/mL and 3.52 IU/mL | 0.73 | 0.74 (3×) and 0.79 and 0.05 and 1.08 and 0.60 and 0.89 and 0.73 and 0.71 (2×) and 0.75 and 0.68 and 0.58 and 0.65 and 3.22 and 0.46 | 52.50 IU/mL and 4.15 IU/mL and 17.377* IU/mL and 5.57 IU/mL and 2.31 IU/mL and 11.77 IU/mL and 21.063* IU/mL and 4.02 IU/mL and 11.23 IU/mL and 17.05* IU/mL | 122.76 IU/mL and 25.71 IU/mL | 108.72 IU/mL and 28.67 IU/mL | 0.90 and 1.13 | slight increase in IFN-γ detected for one of the donors and a slight decrease for the other | –
2 | tetanus toxoid | – | – | – | – | – | – | – | – | – | 4.5 and 4.51

— patent US7608392B2, “Diagnostic assay for measuring a cell mediated immune response” (priority 2002, dated 2009)
